Values quoted from earlier work as cited in patent publication US12661351B2, “Stable liquid compositions of posaconazole” (INVENGENE PRIVATE LIMITED, priority 2020, dated 2026).
Read-outs that look alike come from different tables or passages of the source.

Solubility (aqueous solutions at pH>4): less than 1 mcg/ml
Solubility (strong acidic (aqueous) solutions of pH 1 or lower): about 790 mcg/ml
SMILES: CC[C@@H]([C@H](C)O)n1ncn(-c2ccc(N3CCN(c4ccc(OC[C@@H]5CO[C@@](Cn6cncn6)(c6ccc(F)cc6F)C5)cc4)CC3)cc2)c1=O [Posaconazole]
